Data set [1] can be described thus: Solubility in FeSSIF solution at 1 mg/ml at […] by HPLC with UV detector based assay. It counts as physicochemical.
Data set [2] can be described thus: Drug concentration in bile/gall bladder of C57BL/6 mouse at 30 mg/kg, po measured after 8 hrs by HPLC and mass spectrometry. The settings on record: read-out: Drug uptake. The data set is classed as ADME, organism-based.
Data set [3] in a line: Plasma concentration in C57BL/6 mouse at 30 mg/kg, po measured after 8 hrs by HPLC and mass spectrometry. It counts as ADME, organism-based.
A short description of data set [4]: Cmax in C57BL/6 mouse plasma at 10 mg/kg, po by HPLC and mass spectrometry. It counts as ADME, organism-based. The arrangement: dose 10 mg/kg, route oral.
Data set [5] is described as follows: AUC in C57BL/6 mouse plasma at 10 mg/kg, po by HPLC and mass spectrometry. It counts as ADME, organism-based.
Data set [6] can be described thus: Drug recovery in C57BL/6 mouse feces at 10 mg/kg, po after 48 hrs by LC-MS/MS method. The data set is classed as ADME, organism-based. The settings on record: faeces, read-out: Drug recovery.
A short description of data set [7]: Drug recovery in C57BL/6 mouse bile/gall bladder at 30 mg/kg, po by LC-MS/MS method. The settings on record: read-out: Drug recovery. The data set is classed as ADME, organism-based.
Data set [8] in a line: Apparent permeability from apical to basolateral side in MDCK cells at 10 uM by HPLC-MS/MS method. As to conditions: dog; call rule not given here. The data set is classed as ADME, cell-based, Canis lupus familiaris.
Data set [9] in a line: Apparent permeability from basolateral to apical side in MDCK cells at 10 uM by HPLC-MS/MS method. The data set is classed as ADME, cell-based, Canis lupus familiaris. As to conditions: dog.
Data set [10] can be described thus: Plasma concentration in C57BL/6 DIO mouse at 30 mg/kg, po measured after 4 to 16 hrs post dose by HPLC and mass spectrometry. The data set is classed as ADME, organism-based. The settings on record: in vivo.
The nature of data set [11]: Plasma concentration in C57BL/6 DIO mouse at 100 mg/kg, po measured after 4 to 16 hrs post dose by HPLC and mass spectrometry. It counts as ADME, organism-based. The settings on record: in vivo.

In general, solubility refers to the dissolved amount per volume that the medium holds. Low readings indicate a poorly soluble substance, high ones a readily soluble substance. Usually Cmax stands for the maximum level reached in the sampled fluid or tissue. Broadly, the AUC is the area under the concentration-time curve, a measure of exposure. As a reminder, the Papp A→B is how fast a substance crosses the layer from the apical side. For orientation: Papp B→A means how fast a substance crosses the layer from the basolateral side.

In brackets after ≈: the same amount, converted by molar mass.

The compound `O=C(NC[C@H](O)[C@@H](O)[C@H](O)[C@H](O)CO)c1ccc(COc2cc(Cl)c(CN3CSC[C@H]3C(=O)N3CCN(C4CC4)c4ccccc43)cc2Cl)cc1` displayed a solubility in [1] of 820 µg/mL (≈ 1080 µM). In addition, the concentration at 8 h is 90 nM in [2] and below 2 ng/mL in data set [3]. Moreover, the Cmax in data set [4] stood at 2 ng/mL. Moreover, in data set [5], the AUC was below 5 ng·h/mL. Moreover, the dose excreted at 48 h in data set [6] amounted to 83%. Moreover, the dose excreted in [7] was below 0.01%. The Papp A→B at 10 µM in data set [8] is below 0.01 ×10⁻⁶ cm/s. The Papp B→A at 10 µM in data set [9] was found to be 0.07 ×10⁻⁶ cm/s. Also, the Drug uptake result in [10] and in data set [11] was “Not Active” in each case.
Consider `O=C([C@@H]1CCCN1Cc1cc(Cl)ccc1Cl)N1CCN(C2CC2)c2ccccc21`, for which, in [1], the solubility turned out to be 360 µg/mL (≈ 836 µM).
Same read-out and setting: the figure for `O=C(c1cccnc1Oc1cc(Cl)ccc1Cl)N1CCN(C2CC2)c2ccccc21` is below 50 µg/mL.
On to `CN(C[C@H](O)[C@@H](O)[C@H](O)[C@H](O)CO)C(=O)CCCCc1cc(Cl)c(CN2CSC[C@H]2C(=O)N2CCN(C3CC3)c3ccccc32)cc1Cl`, for which the figures for the concentration at 8 h in data set [2] and in data set [3] were 1300 nM and 3.6 ng/mL, respectively.
For `O=C(CCCCc1cc(Cl)c(CN2CSC[C@H]2C(=O)N2CCN(C3CC3)c3ccccc32)cc1Cl)N[C@@H](C(=O)O)[C@@H](O)[C@H](O)[C@H](O)CO`, the concentration at 8 h in data set [2] worked out at 3900 nM; in [3], 28.1 ng/mL.
Turning to `O=C(NCCCCCc1cc(Cl)c(CN2CSC[C@H]2C(=O)N2CCN(C3CC3)c3ccccc32)cc1Cl)NCP(=O)(O)O`, the values for the concentration at 8 h in [2] and in [3] were 3100 nM and 24.8 ng/mL, respectively.
Consider `CN(C[C@H](O)[C@@H](O)[C@H](O)[C@H](O)CO)C(=O)CC[C@H](NC(=O)CCCCc1cc(Cl)c(CN2CSC[C@H]2C(=O)N2CCN(C3CC3)c3ccccc32)cc1Cl)C(=O)O`, for which the concentration at 8 h was 1900 nM in data set [2] and 2.3 ng/mL in data set [3].
Turning to `O=C(O)CN(CCCCCc1cc(Cl)c(CN2CSC[C@H]2C(=O)N2CCN(C3CC3)c3ccccc32)cc1Cl)CC(=O)O`, the concentration at 8 h in data set [2] is 4700 nM.
For the compound `O=C(O)CNC(=O)CNC(=O)CNC(=O)CCCCc1cc(Cl)c(CN2CSC[C@H]2C(=O)N2CCN(C3CC3)c3ccccc32)cc1Cl`, the concentration at 8 h is 600 nM in data set [2] and below 0.5 ng/mL in data set [3].
With `O=C(NCCCN(CCCNC(=O)[C@H](O)[C@@H](O)[C@H](O)[C@H](O)CO)C(=O)NCCCCOc1cc(Cl)c(CN2CSC[C@H]2C(=O)N2CCN(C3CC3)c3ccccc32)cc1Cl)[C@H](O)[C@@H](O)[C@H](O)[C@H](O)CO`, the concentration at 8 h in data set [2] was determined as 300 nM.
Take `O=C(O)CNC(=O)[C@H](CSSC[C@H](NC(=O)CC[C@H](NC(=O)CCCCc1cc(Cl)c(CN2CSC[C@H]2C(=O)N2CCN(C3CC3)c3ccccc32)cc1Cl)C(=O)O)C(=O)NCC(=O)O)NC(=O)CC[C@H](NC(=O)CCCCc1cc(Cl)c(CN2CSC[C@H]2C(=O)N2CCN(C3CC3)c3ccccc32)cc1Cl)C(=O)O`: the concentration at 8 h in [2] is below 100 nM; in data set [3], below 10 ng/mL.
For the compound `O=C(O)CN(C[C@H](O)[C@@H](O)[C@H](O)[C@H](O)CO)C(=O)CCCCc1cc(Cl)c(CN2CSC[C@H]2C(=O)N2CCN(C3CC3)c3ccccc32)cc1Cl`, the concentration at 8 h in data set [2] amounted to 3700 nM.
As for `O=C(NCCCCCc1cc(Cl)c(CN2CSC[C@H]2C(=O)N2CCN(C3CC3)c3ccccc32)cc1Cl)NC(CO)(CO)CO`, the concentration at 8 h in data set [2] turned out to be 6000 nM; in data set [3] it was 1.2 ng/mL.
Take `C[C@@H](NC(=O)[C@@H](C)NC(=O)[C@@H](C)NC(=O)CCCCc1cc(Cl)c(CN2CSC[C@H]2C(=O)N2CCN(C3CC3)c3ccccc32)cc1Cl)C(=O)O`: the concentration at 8 h in data set [2] was determined as 1700 nM; in data set [3] it was 0.6 ng/mL.
On the same counts, the results for `O=C(NCCCCCc1cc(Cl)c(CN2CSC[C@H]2C(=O)N2CCN(C3CC3)c3ccccc32)cc1Cl)N1CCN(CP(=O)(O)O)CC1` are 80 nM and 2.8 ng/mL.
